Among the data in patent US7297700B2, “Bicycloheteroaryl compounds as P2X7 modulators and uses thereof” (Renovis, Inc., priority 2005, dated 2007) are inhibition and IL-1β % inhibition values, retold here.

In one experiment the test system is IL-1β release from THP-1 cells. The experiment in a line: IL-1β Release Assay (Alternate Method), THP-1 cells. The conditions noted are these: Homo sapiens, THP-1, read-out: IL-1β % inhibition. The experiment is classed as cell-based, human. The method, then:
THP-1 cells (ATCC Cat #285-IF-100) are plated in 96 well plates at a concentration of 200,000 cells per well and allowed to differentiate in RPMI-1640 media (ATCC Cat #30-2001) containing 10% FBS, 100 IU/mL penicillin, 100 ug/mL streptomycin, 100 ng/mL LPS and 100 ng/mL IFN-γ for 16 hours. Following differentiation, the cells are treated for an additional 2 hours in RPMI-1640 media containing 100 IU/mL penicillin, 100 ug/mL streptomycin and fresh LPS at 100 ng/mL. The cells are then pretreated for 30 minutes with the compound of interest at the appropriate concentration in RPMI media containing 100 IU/mL penicillin, 100 ug/mL streptomycin. Following the pretreatment 2′, 3′-O-(4-benzoylbenzoyl)-adenosine 5′-triphosphate (Sigma Aldrich Cat#B6396) is added to a final concentration of 250 uM and the cells incubated for an additional 45 minutes. 30 uL of cell supernatant is then collected and IL-1β levels determined via ELISA (R&D systems Cat. #HSLB50) according to manufacturer's recommendations using the Tecan Safire plate reader. Background adjusted IL-1β levels of drug treated and non-treated cells are used to calculate the percent inhibition.
With `O=C(CC12CC3CC(CC(C3)C1)C2)Nc1ncnc2c1CCN(Cc1ccccc1)C2` [Compound 5, 2-Adamantan-1-yl-N-(7-benzyl-5,6,7,8-tetrahydro-pyrido[3,4-d]pyrimidin-4-yl)-acetamide], the inhibition at 0.3 µM fell in the range of 25 to 50%.

Turning to `O=C(CC12CC3CC(CC(C3)C1)C2)Nc1ncnc2c1CCN(CCO)C2` [Compound 18, 2-Adamantan-1-yl-N-[7-(2-hydroxy-ethyl)-5,6,7,8-tetrahydro-pyrido[3,4-d]pyrimidin-4-yl]-acetamide], the inhibition at 0.3 µM was 0 to 25%.

For `O=C(CC12CC3CC(CC(C3)C1)C2)Nc1ncnc2c1CCN(CCCO)C2` [Compound 19, 2-adamantan-1-yl-N-[7-(3-hydroxy-propyl)-5,6,7,8-tetrahydro-pyrido[3,4-d]pyrimidin-4-yl]-acetamide], the inhibition at 0.3 µM was in the range of 0 to 25%.

Turning to `O=C(CC12CC3CC(CC(C3)C1)C2)Nc1ncnc2c1CCN(CC(O)CO)C2` (stereo not drawn) [Compound 23, 2-Adamantan-1-yl-N-[7-(2,3-dihydroxy-propyl)-5,6,7,8-tetrahydro-pyrido[3,4-d]pyrimidin-4-yl]-acetamide], the inhibition at 0.3 µM fell in the range of 0 to 25%.

Still in this experiment, the particulars now being: Homo sapiens; at 0.3 μM; THP-1 cells; read-out: IL-1β % inhibition.
As for `O=C(CC12CC3CC(CC(C3)C1)C2)Nc1ncnc2c1CCNC2` [Compound 6, 2-Adamantan-1-yl-N-(5,6,7,8-tetrahydro-pyrido[3,4-d]pyrimidin-4-yl)-acetamide], the inhibition at 0.3 µM was in the range of 0 to 25%.

With `COCC(O)CN1CCc2c(ncnc2NC(=O)CC23CC4CC(CC(C4)C2)C3)C1` (stereo not drawn) [Compound 13, 2-adamantan-1-yl-N-[7-(2-hydroxy-3-methoxy-propyl)-5,6,7,8-tetrahydro-pyrido[3,4-d]pyrimidin-4-yl]-acetamide], the inhibition at 0.3 µM lay within 0 to 25%.

In the case of `O=C(NCC12CC3CC(CC(C3)C1)C2)c1ncnc2c1CCN(Cc1ccccc1)C2` [Compound 17, 7-Benzyl-N-adamantylmethyl-5,6,7,8-tetrahydropyrido[3,4-d]pyrimidine-4-carboxamide], the inhibition at 0.3 µM is greater than 75%.

In the case of `O=C(CC12CC3CC(CC(C3)C1)C2)Nc1ncnc2c1CCN(Cc1ccc3c(c1)OCCO3)C2` [Compound 46], the inhibition at 0.3 µM was greater than 75%.

The same experiment, now with this note: at 0.3 μM; THP-1 cells.
Consider `O=C(NCCc1ccccc1Cl)c1ncnc2c1CCN(Cc1ccccc1)C2` [Compound 1], for which the IL-1β % inhibition result is reported as “+ (compound exhibited 0-25% inhibition at 0.3 μM)”.

`O=C(NCC1CCCCC1)c1ncnc2c1CCNC2` [Compound 2]: the IL-1β % inhibition entry is listed as “+ (compound exhibited 0-25% inhibition at 0.3 μM)”.

For `O=C(NCCc1ccccc1)c1ncnc2c1CCNC2` [Compound 3], the IL-1β % inhibition result is on record as “+ (compound exhibited 0-25% inhibition at 0.3 μM)”.

Consider `O=C(NCC1CCCCC1)c1ncnc2c1CCN(Cc1ccccc1)C2` [Compound 4], for which the IL-1β % inhibition entry was “+ (compound exhibited 0-25% inhibition at 0.3 μM)”.

Consider `CN1CCc2c(ncnc2NC(=O)CC23CC4CC(CC(C4)C2)C3)C1` [Compound 7], for which the IL-1β % inhibition entry was “+ (compound exhibited 0-25% inhibition at 0.3 μM)”.

For the compound `CCN1CCc2c(ncnc2NC(=O)CC23CC4CC(CC(C4)C2)C3)C1` [Compound 8], the IL-1β % inhibition result is “+ (compound exhibited 0-25% inhibition at 0.3 μM)”.

`O=C(CC1CCCCC1)Nc1ncnc2c1CCN(Cc1ccccc1)C2` [Compound 9]: the IL-1β % inhibition entry is “+ (compound exhibited 0-25% inhibition at 0.3 μM)”.

`O=C(CC1CCCCC1)Nc1ncnc2c1CCNC2` [Compound 11]: the IL-1β % inhibition entry is “+ (compound exhibited 0-25% inhibition at 0.3 μM)”.

Take `O=C(CC1CCCCCC1)Nc1ncnc2c1CCNC2` [Compound 12]: the IL-1β % inhibition entry was “+ (compound exhibited 0-25% inhibition at 0.3 μM)”.

Consider `O=C(CC12CC3CC(CC(C3)C1)C2)Nc1ncnc2c1CCN(CCc1ccccc1)C2` [Compound 14], for which the IL-1β % inhibition entry is listed as “+ (compound exhibited 0-25% inhibition at 0.3 μM)”.

`CS(=O)(=O)c1ccc(CN2CCc3c(ncnc3NC(=O)CC34CC5CC(CC(C5)C3)C4)C2)cc1` [Compound 15]: the IL-1β % inhibition entry is listed as “+ (compound exhibited 0-25% inhibition at 0.3 μM)”.

For `O=C(CC12CC3CC(CC(C3)C1)C2)Nc1ncnc2c1CCN(Cc1cccnc1)C2` [Compound 16], the IL-1β % inhibition result is on record as “+ (compound exhibited 0-25% inhibition at 0.3 μM)”.

As to `CCN1CCc2c(ncnc2NC(=O)CC2CCCCC2)C1` [Compound 20], the IL-1β % inhibition entry is given as “+ (compound exhibited 0-25% inhibition at 0.3 μM)”.

With `O=C(CC1CCCCC1)Nc1ncnc2c1CCN(CCCO)C2` [Compound 21], the IL-1β % inhibition entry is listed as “+ (compound exhibited 0-25% inhibition at 0.3 μM)”.

Take `O=C(CC1CCCCC1)Nc1ncnc2c1CCN(CCO)C2` [Compound 22]: the IL-1β % inhibition entry was “+ (compound exhibited 0-25% inhibition at 0.3 μM)”.

For `COc1ccccc1CCC(=O)Nc1ncnc2c1CCN(Cc1ccccc1)C2` [Compound 24], the IL-1β % inhibition entry was “+ (compound exhibited 0-25% inhibition at 0.3 μM)”.

With `COc1ccccc1CCC(=O)Nc1ncnc2c1CCNC2` [Compound 25], the IL-1β % inhibition result is listed as “+ (compound exhibited 0-25% inhibition at 0.3 μM)”.

As to `CN1CCc2c(ncnc2NC(=O)CC2CCCCC2)C1` [Compound 26], the IL-1β % inhibition entry is reported as “+++ (compound exhibited 50-75% inhibition at 0.3 μM)”.

For the compound `O=C(CC12CC3CC(CC(C3)C1)C2)Nc1ncnc2c1CCN(Cc1ccccc1Cl)C2` [Compound 27], the IL-1β % inhibition result is recorded as “+++ (compound exhibited 50-75% inhibition at 0.3 μM)”.

With `O=C(CC12CC3CC(CC(C3)C1)C2)Nc1ncnc2c1CCN(Cc1ccccc1F)C2` [Compound 28], the IL-1β % inhibition result was “++++ (compound exhibited 75% or greater inhibition at 0.3 μM)”.

On to `COc1ccccc1CN1CCc2c(ncnc2NC(=O)CC23CC4CC(CC(C4)C2)C3)C1` [Compound 29], for which the IL-1β % inhibition entry is listed as “+ (compound exhibited 0-25% inhibition at 0.3 μM)”.

For the compound `COc1ccc(CN2CCc3c(ncnc3NC(=O)CC34CC5CC(CC(C5)C3)C4)C2)c(OC)c1` [Compound 30], the IL-1β % inhibition entry is “++++ (compound exhibited 75% or greater inhibition at 0.3 μM)”.

Regarding `Cc1ccccc1CN1CCc2c(ncnc2NC(=O)CC23CC4CC(CC(C4)C2)C3)C1` [Compound 31], the IL-1β % inhibition entry is given as “+++ (compound exhibited 50-75% inhibition at 0.3 μM)”.

Regarding `Cc1ccc(C)c(CN2CCc3c(ncnc3NC(=O)CC34CC5CC(CC(C5)C3)C4)C2)c1` [Compound 32], the IL-1β % inhibition result is listed as “+ (compound exhibited 0-25% inhibition at 0.3 μM)”.

Take `O=C(CC12CC3CC(CC(C3)C1)C2)Nc1ncnc2c1CCN(Cc1cccc(F)c1)C2` [Compound 33]: the IL-1β % inhibition entry was “+ (compound exhibited 0-25% inhibition at 0.3 μM)”.

For `O=C(CC12CC3CC(CC(C3)C1)C2)Nc1ncnc2c1CCN(Cc1cccc(Cl)c1)C2` [Compound 34], the IL-1β % inhibition entry is reported as “+ (compound exhibited 0-25% inhibition at 0.3 μM)”.

With `COc1cccc(CN2CCc3c(ncnc3NC(=O)CC34CC5CC(CC(C5)C3)C4)C2)c1` [Compound 35], the IL-1β % inhibition entry is on record as “+++ (compound exhibited 50-75% inhibition at 0.3 μM)”.

Turning to `COc1ccc(CN2CCc3c(ncnc3NC(=O)CC34CC5CC(CC(C5)C3)C4)C2)cc1OC` [Compound 36], the IL-1β % inhibition result is “+ (compound exhibited 0-25% inhibition at 0.3 μM)”.

On to `COc1cc(CN2CCc3c(ncnc3NC(=O)CC34CC5CC(CC(C5)C3)C4)C2)cc(OC)c1` [Compound 37], for which the IL-1β % inhibition entry is on record as “+ (compound exhibited 0-25% inhibition at 0.3 μM)”.

Consider `Cc1cccc(CN2CCc3c(ncnc3NC(=O)CC34CC5CC(CC(C5)C3)C4)C2)c1` [Compound 38], for which the IL-1β % inhibition result was “+ (compound exhibited 0-25% inhibition at 0.3 μM)”.

Turning to `COc1ccc(CN2CCc3c(ncnc3NC(=O)CC34CC5CC(CC(C5)C3)C4)C2)cc1C` [Compound 39], the IL-1β % inhibition entry is reported as “+ (compound exhibited 0-25% inhibition at 0.3 μM)”.

As for `COc1ccc(CN2CCc3c(ncnc3NC(=O)CC34CC5CC(CC(C5)C3)C4)C2)cc1` [Compound 40], the IL-1β % inhibition entry was “+ (compound exhibited 0-25% inhibition at 0.3 μM)”.

On to `O=C(CC12CC3CC(CC(C3)C1)C2)Nc1ncnc2c1CCN(Cc1ccc(Cl)cc1)C2` [Compound 41], for which the IL-1β % inhibition entry is on record as “+ (compound exhibited 0-25% inhibition at 0.3 μM)”.

On to `N#Cc1ccc(CN2CCc3c(ncnc3NC(=O)CC34CC5CC(CC(C5)C3)C4)C2)cc1` [Compound 42], for which the IL-1β % inhibition entry is reported as “+ (compound exhibited 0-25% inhibition at 0.3 μM)”.

As to `O=C(CC12CC3CC(CC(C3)C1)C2)Nc1ncnc2c1CCN(Cc1ccncc1)C2` [Compound 43], the IL-1β % inhibition entry is reported as “+ (compound exhibited 0-25% inhibition at 0.3 μM)”.

For the compound `Cc1ccc(CN2CCc3c(ncnc3NC(=O)CC34CC5CC(CC(C5)C3)C4)C2)cc1` [Compound 44], the IL-1β % inhibition result was “+ (compound exhibited 0-25% inhibition at 0.3 μM)”.

As to `CCc1ccc(CN2CCc3c(ncnc3NC(=O)CC34CC5CC(CC(C5)C3)C4)C2)cc1` [Compound 45], the IL-1β % inhibition entry is on record as “+ (compound exhibited 0-25% inhibition at 0.3 μM)”.

For the compound `O=C(CC12CC3CC(CC(C3)C1)C2)Nc1ncnc2c1CCN(Cc1ccc(F)cc1F)C2` [Compound 47], the IL-1β % inhibition entry is “++++ (compound exhibited 75% or greater inhibition at 0.3 μM)”.

`O=C(NCC1CCCCC1)c1ncnc2c1CCN(Cc1cccnc1)C2` [Compound 48]: the IL-1β % inhibition result was “+ (compound exhibited 0-25% inhibition at 0.3 μM)”.

The same experiment, now with this note: at 0.3 μM; THP-1 cells, BzATP-stimulated.
Take `O=C(C1COc2ccccc2C1)N1CCc2c(ncnc2NC(=O)C23CC4CC(CC(C4)C2)C3)C1` (racemic) [Compound 477]: the IL-1β % inhibition result is listed as “++ (compound exhibited 25-50% inhibition at 0.3 μM)”.

A word on the inhibition: it is the drop in the measured response relative to a control, in per cent.
